According to publication PMC6278385, “Preclinical Pharmacokinetics of C118P, a Novel Prodrug of Microtubules Inhibitor and Its Metabolite C118 in Mice, Rats, and Dogs” (Molecules, 2018):

Tests used:
[1] = Plasma protein binding by ultrafiltration; format: in vitro ADME, beagle dogs; conditions: beagle, dog plasma, read-out: fu (fraction unbound);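 also: fu expressed in percent not as a fraction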
Procedure: Both C118P and C118 were stable in the plasma with EDTA as anticoagulant. The non-specific binding to the ultrafilter membrane was negligible. The extent of plasma protein binding was reported as a fraction unbound (fu, %) value which was calculated using the formula fu = PF/TC × 100%, where TC is test compound (C118P or C118) concentration in sample before ultrafiltration, and PF is the test compound concentration in the ultrafiltrate (Table 1).
Plasma protein binding of C118P and C118 were determined by ultrafiltration at four concentrations (C118P: 400, 4000, 40,000, and 400,000 ng/mL, C118: 20, 200, 2000, and 20,000 ng/mL) in pooled plasma from Sprague-Dawley rats, beagle dogs, and humans. Stock solutions of C118P and C118 dissolved in methanol were diluted with blank plasma to achieve the test concentrations (the methanol volume is less than 10% of the plasma). The plasma was incubated for 1 h in a water bath at 37 °C. The total concentration of C118P and C118 of spiked plasma (TC) was analyzed by previously described methods. Ultrafiltration was performed with activated high speed centrifugal tubes (Millipore, Burlington, MA, USA). Plasma samples (0.4 mL) were added to the upper layer of the high speed centrifugal tubes, and then centrifuged at 12,000 g for 10 min. The concentration of unbound C118P and C118 in filtrate (PF) was similarly determined by the previously described methods. The percentage of free fraction (fu) of C118P and C118 was calculated as follows: fu = (PF/TC) × 100%.

Whole blood/plasma ratio = format: in vitro ADME; conditions: in rat, incubation 30 min
Procedure: The ratio of C118P and C118 in blood and plasma was studied. The whole blood was obtained from healthy volunteer and was separated into two parts to obtain whole blood and plasma. Standard solution was added into whole blood and plasma to mimic the incurred sample. After incubation for 30 min, the whole blood was separated into two parts. One was frozen and thawed to obtain the homogenous whole blood and the other sample was centrifuged to obtain plasma. The samples were analyzed by the established LC-MS/MS method and the blood plasma ratio was calculated.

[2] = Metabolic stability in liver microsomes; format: in vitro ADME, human
Procedure: The in vitro metabolic stability of C118P and C118 were estimated in mice, rat, dog, monkey, and human liver microsomes (Research Institute for Liver Diseases Co. Ltd (Shanghai, China)). The incubation mixture contains C118P or C118, NADP (1.0 mM), G-6-P (10 mM), PDH (2 units/mL), MgCl2 (10 mM), and liver microsomes (mice, rats, dogs, monkeys, or humans, 1.0 mg protein/mL) in phosphate buffer. A total of 200 μL of the mixture was removed and quenched with 600 μL acetonitrile in an ice bath at 0, 15, 30, 60, 120, and 240 min after the addition of NADPH.
CLint, in vitro (the in vitro intrinsic clearance, Equation (1)) was calculated from the t1/2 of C118 disappearance, where Cprotein is the protein concentration during the incubation, and t1/2 was determined by the slope (k) of the log-linear regression analysis of the concentration versus time profiles; thus, t1/2 = ln2/k. […] The in vivo hepatic clearance (CLH, Equation (3)) was then calculated by using CLint and hepatic blood flow, Q ([…] mL·min^−1·kg^−1 in rats, dogs, monkey, and humans, respectively), in the well-stirred liver model disregarding all binding. The hepatic extraction ratio was calculated as CLH divided by Q. CLint, in vitro = (0.693/t1/2) × (1/Cprotein)(1) CLint = CLint, in vitro × (mg protein/g liver weight) × (gliver weight/kg body weight)(2) CLH = (Q × CLint)/(Q + CLint)(3)

[3] = Tissue distribution in tumor bearing mice; format: in vivo, nude mice (BALB/cA) implanted with NCI-H460 tumor
Procedure: The nude mice (BALB/cA) implanted with NCI-H460 tumor were provided by Shanghai Institute of Materia Medica. A total of 36 mice were divided into 9 groups with four animals in each group. After fasting overnight with free access to water, the mice were treated with 75 mg/kg C118P by i.v. The blood samples were collected at 2, 10, 20, 40 min, 1, 2, 4, 8, 12 h after treatment and the mice were anaesthetized and decapitated to obtain the blood and tumor tissue. Blood, brain, muscle, ovary, and lung from mice in the PK study were collected at 10 min, 1, 4, and 12 h. Tissues were cleaned by absorbent filter paper to remove the blood. Bloods were centrifuged at 10,000× g for 5 min. Each tissue (0.2 g) was homogenized with 2 mL water. The plasma samples and the homogenates were then processed and determined by the method described above. The concentration was determined by the calibration curve and the actual concentration was corrected by multiplying by 10 according to the dilution times. […]
4. The distribution of CA4P and CA4 in tumor bearing mice.
The nude mice (BALB/cA) implanted with NCI-H460 tumor were provided by Shanghai institute of Materia Medica. A total of 36 mice were divided into 9 groups with 4 animals in each group.
After fasted overnight with free access to water, the mice were treated with 75 mg/kg CA4P by i.v.
The blood samples were collected at 2, 10, 20, 40 min, 1, 2, 4, 8, 12 h after treatment and the mice were anaesthetized and decapitated to obtain the blood and tumor tissue. All procedure are same as C118P in the main text. The concentration was determined by the calibration curve and the actual concentration was corrected by multiplying by 10 according to the dilution times.

[4] = 0.17 h after i.v. 75 mg/kg of C118P, n = 4
[5] = 0.17 h after i.v. 75 mg/kg of C118P, n = 4, in ng/g
[6] = 1 h after i.v. 75 mg/kg of C118P, n = 4
[7] = 4 h after i.v. 75 mg/kg of C118P, n = 4
[8] = 12 h after i.v. 75 mg/kg of C118P, n = 4

SMILES: COc1cc(OC)cc(-c2nc[nH]c2-c2ccc(OC)c(O)c2)c1 [C118]
- fraction unbound at 1 h, 200 ng/mL ([1]; pooled plasma, C118 200 ng/mL): 0.058 ± 0.002
- fraction unbound at 1 h, 2000 ng/mL ([1]; pooled plasma, C118 2000 ng/mL): 0.062 ± 0.004
- fraction unbound at 1 h, 20000 ng/mL ([1]; pooled plasma, C118 20,000 ng/mL): 0.054 ± 0.004
- blood plasma ratio at 30 min (Whole blood/plasma ratio; whole blood and plasma): 1.05
- CLint, in vitro ([2]; human liver microsomes): 58.2 μL·min^−1·mg^−1 Protein
- half-life ([2]; human liver microsomes, 1.0 mg protein/mL, C118 disappearance): 11.9 min
- CLint ([2]; human, scaled from CLint, in vitro): 47.9 mL/min/kg
- Extrapolated CLH ([2]; human, well-stirred liver model): 14.1 mL/min/kg
- concentration in muscle [3, 4]: 15,202.5 ± 8814.7
- concentration in ovary [3, 4]: 26,723.8 ± 18,229.6
- concentration in Lung [3, 5]: 26,923.2 ± 4389.0
- concentration in Tumor [3, 5]: 14,563.3 ± 1989.9
- concentration in brain [3, 5]: 3562.8 ± 796.6
- concentration in Plasma ([3]; 0.17 h after i.v. 75 mg/kg of C118P, n = 4, in ng/mL): 26,048.0 ± 2429.7
- concentration in Lung [3, 6]: 1852.3 ± 929.3
- concentration in Plasma [3, 6]: 1730.0 ± 986.4
- concentration in Tumor [3, 6]: 12,998.1 ± 4132.3
- concentration in brain [3, 6]: 1250.7 ± 351.3
- concentration in muscle [3, 6]: 946.8 ± 390.6
- concentration in ovary [3, 6]: 3308.6 ± 2611.1
- concentration in Lung [3, 7]: 231.3 ± 181.7
- concentration in Plasma [3, 7]: 132.6 ± 56.8
- concentration in Tumor [3, 7]: 4969.8 ± 3414.7
- concentration in brain [3, 7]: 109.1 ± 22.0
- concentration in muscle [3, 7]: 136.4 ± 2.8
- concentration in Tumor [3, 8]: 1327.7 ± 1124.0

SMILES: COc1cc(OC)cc(-c2nc[nH]c2-c2ccc(OC)c(OP(=O)([O-])[O-])c2)c1.[Na+].[Na+] [C118P]
- fraction unbound at 1 h, 400 ng/mL ([1]; C118P 400 ng/mL): 0.019 ± 0.001
- fraction unbound at 1 h, 4000 ng/mL ([1]; C118P 4000 ng/mL): 0.021 ± 0.001
- fraction unbound at 1 h, 40000 ng/mL ([1]; C118P 40,000 ng/mL): 0.027 ± 0.002
- fraction unbound at 1 h, 400000 ng/mL ([1]; C118P 400,000 ng/mL): 0.086 ± 0.003
- blood plasma ratio at 30 min (Whole blood/plasma ratio): 0.8
- stability in liver microsomes ([2]; human liver microsomes (Figure S1)): quite stable
- concentration in Lung [3, 4]: 130.2 ± 7.5
- concentration in Plasma [3, 4]: 5199.4 ± 2147.9
- concentration in Tumor [3, 4]: 115.8 ± 24.1
- concentration in muscle [3, 4]: 355.4 ± 64.1
- concentration in Plasma [3, 6]: 191.2 ± 60.5
- concentration in Tumor [3, 6]: 73.0 ± 15.0
- concentration in Plasma [3, 7]: 14.7 ± 8.4
- concentration in Tumor [3, 7]: 26.7 ± 0.0
- concentration in Plasma [3, 8]: 6.1 ± 0.0
